Measurements taken from ChEMBL document CHEMBL1201862, “PubChem BioAssay data set” (2004).
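Protocol summary: plate cells (96-well), add compound at 5 concentrations, incubate 48 h, interpolate endpoints linearly. The concentration for 50% growth inhibition is given as GI50.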 Activity calls are given as the source filed them. Cut-off read from the data, not from the text of the source: active = GI50 up to about 1.1 µM and inactive = higher. Non-standard residues stand in square brackets, D forms with d. Residues, ends and D or L forms follow the SMILES beside them. ξ: configuration not given here. Pen = CC(C)(S)[C@H](N)C(=O)O; ξL = CC(C)CC(N)C(=O)O

Key:
Assay in all cases: NCI tumour cell line growth inhibition, 48 h
MDA-N = test system: MDA-N
SR = test system: SR
Hs-578T = test system: Hs-578T
LXFL 529 = test system: LXFL 529
DMS-273 = test system: DMS-273
KM-20L2 = test system: KM-20L2
RXF 631 = test system: RXF 631
DLD-1 = test system: DLD-1
SNB-78 = test system: SNB-78

SMILES | GI50 (MDA-N) | GI50 (SR) | GI50 (Hs-578T) | GI50 (LXFL 529) | GI50 (DMS-273) | GI50 (KM-20L2) | GI50 (RXF 631) | GI50 (DLD-1) | GI50 (SNB-78)
Cc1cccc(C)c1NC(=O)Nc1ccc(S(N)(=O)=O)cc1 | > 100 µM (inactive) | > 100 µM (inactive) | > 100 µM (inactive) | – | – | – | – | – | –
CCOC(=O)C(=O)NC12CC3CC(CC(C3)C1)C2 | – | – | – | > 100 µM (inactive) | > 100 µM (inactive) | > 100 µM (inactive) | > 100 µM (inactive) | > 100 µM (inactive) | –
c1ccc(OCc2nnc(CCCCCCCCc3nnc(COc4ccccc4)o3)o2)cc1 | > 100 µM (inactive) | – | – | – | – | – | – | – | –
CN(C)CCNC(=O)c1cc(Cl)cc2cc3ccccc3nc12 | – | – | – | – | 0.733 µM (active) | 0.422 µM (active) | – | 0.652 µM (active) | 1.97 µM (inactive)
Cc1ccc2c3c1[C@@H]1O[C@@H]1c1cccc(c1-3)[C@@H]1O[C@H]21 | 14.4 µM (inactive) | 11.5 µM (inactive) | 21.3 µM (inactive) | – | – | – | – | – | –
O=C(OCc1ccccc1)OOC(=O)OCc1ccccc1 | – | > 100 µM (inactive) | – | > 100 µM (inactive) | – | > 100 µM (inactive) | – | > 100 µM (inactive) | > 100 µM (inactive)
C=C1C[C@@H](O)C[C@@]2(C)C[C@@H]3OC(=O)C(=C)[C@@H]3C[C@H]12 | – | – | – | – | 5.35 µM (inactive) | 5.83 µM (inactive) | – | 3.85 µM (inactive) | 7.69 µM (inactive)
COC(=O)C1C(O)C(C)C(O)C(C)(O)/C=C\C=C(C)C(=O)Nc2c(C)c(OC(C)=O)c3c(c2O)C(=O)C(C)=C2OCOC(=C23)C(C)=CC(C)(O)C(O)C(C)C1OC(C)=O (stereo not drawn) | – | – | – | – | 44 µM (inactive) | 33.7 µM (inactive) | – | 24.7 µM (inactive) | 44.6 µM (inactive)
CC[C@H]1CN2CCc3cc(OC)c(OC)cc3[C@@H]2C[C@@H]1C[C@H]1NCCc2cc(O)c(OC)cc21 | – | < 0.01 µM (active) | – | – | 0.0344 µM (active) | 0.025 µM (active) | – | 0.0277 µM (active) | –
COC(=O)C(Cc1ccc(N(C)C)cc1)(NC(=O)c1ccccc1)P(=O)(OC)OC (stereo not drawn) | – | > 100 µM (inactive) | – | > 100 µM (inactive) | > 100 µM (inactive) | > 100 µM (inactive) | – | – | –
N/N=C(\C(=O)Nc1c(Cl)cc([N+](=O)[O-])cc1Cl)C(c1cnc2ccc([N+](=O)[O-])cc2n1)[N+](=O)[O-] (stereo not drawn) | – | > 100 µM (inactive) | – | – | 38.6 µM (inactive) | > 100 µM (inactive) | – | > 100 µM (inactive) | 40.4 µM (inactive)
O=C1C=C/C(=C/[C@H]2SSC=C[C@]23C=CC(=O)C3)C1 | 17.5 µM (inactive) | 1.75 µM (inactive) | 10.8 µM (inactive) | – | – | – | – | – | –
Cc1ccc(C(=O)Cc2nc3c([nH]c2=O)c(C)nn3-c2ccccc2)c(C)c1 | > 10 µM (inactive) | > 10 µM (inactive) | > 10 µM (inactive) | – | – | – | – | – | –
COc1ccc(/C=C2\C[C@H]3[C@@H]4CCC5=C/C(=N/O)CC[C@]5(C)[C@H]4CC[C@]3(C)\C2=N\O)cc1OC | 11.6 µM (inactive) | 6.14 µM (inactive) | > 100 µM (inactive) | – | – | – | – | – | –
CCOC(=O)C1=NN(c2ccc(Cl)cc2)C2=CC(C)=NN(C)C(=S)N21 | > 100 µM (inactive) | > 100 µM (inactive) | 27.5 µM (inactive) | – | – | – | – | – | –
CCOC(=O)CNC(=O)NC12CC3CC(CC(C3)C1)C2 | – | – | – | – | 223 µM (inactive) | 237 µM (inactive) | – | 65.8 µM (inactive) | 221 µM (inactive)
CC(=C(c1ccccc1)c1ccccc1)N1C(=O)CC(=O)N1C | 48.3 µM (inactive) | – | 20.3 µM (inactive) | – | – | – | – | – | –
COc1cccc(N2C(=O)CSC2c2cccc(Oc3ccccc3)c2)c1 (stereo not drawn) | 1.89 µM (inactive) | 3.79 µM (inactive) | 5.78 µM (inactive) | – | – | – | – | – | –
Cc1ccnc2nc(N)ccc12 | > 100 µM (inactive) | > 100 µM (inactive) | > 100 µM (inactive) | – | – | – | – | – | –

SMILES | GI50 (MDA-N) | GI50 (SR) | GI50 (Hs-578T) | GI50 (LXFL 529) | GI50 (DMS-273) | GI50 (KM-20L2) | GI50 (RXF 631) | GI50 (DLD-1) | GI50 (SNB-78)
C=CCc1cccc2cc(C(=O)Nc3ccc(C)cc3)c(=N)oc12 | > 100 µM (inactive) | > 100 µM (inactive) | > 100 µM (inactive) | – | – | – | – | – | –
COc1ccc(/C(Cl)=C(\C=O)c2ccc(F)cc2)cc1 | – | – | – | 6.27 µM (inactive) | 14.9 µM (inactive) | 6.87 µM (inactive) | 19.8 µM (inactive) | 8.17 µM (inactive) | 7.53 µM (inactive)
CCCCCCSc1nc(N)nc2nc[nH]c12 | – | – | – | – | 43.7 µM (inactive) | 39.7 µM (inactive) | – | 33.7 µM (inactive) | 38.5 µM (inactive)
c1ccc2c(c1)SCCc1cn[nH]c1-2 | – | – | – | – | > 100 µM (inactive) | > 100 µM (inactive) | – | > 100 µM (inactive) | > 100 µM (inactive)
CC(=O)OCC1OC(Nc2ncc(-c3ccc(C)cc3)s2)C(OC(C)=O)C(OC(C)=O)C1OC(C)=O (stereo not drawn) | – | – | – | – | > 58.9 µM (inactive) | – | – | 54.1 µM (inactive) | 40.8 µM (inactive)
CN(C)CCOc1cc2c(c3ccccc13)-c1ccccc1C2=O | – | – | – | – | 0.531 µM (active) | 2.1 µM (inactive) | – | 1.15 µM (inactive) | 6.03 µM (inactive)
COc1ccc2c(c1)c1c(n2CCN(C)C)-c2ccccc2CC1 | 16 µM (inactive) | – | 17.6 µM (inactive) | – | – | – | – | – | –
C[Si](C)(C)/C(I)=C/CO | – | – | – | 34.6 µM (inactive) | 20.6 µM (inactive) | 20.5 µM (inactive) | 26.4 µM (inactive) | – | 28.6 µM (inactive)
CCOC(=O)C1(C(F)(F)F)N=C(CC)OC(N2CCOCC2)=N1 (stereo not drawn) | > 100 µM (inactive) | > 100 µM (inactive) | > 100 µM (inactive) | – | – | – | – | – | –
N=C(N)SCCC(=O)CCSC(=N)N | > 100 µM (inactive) | > 100 µM (inactive) | > 100 µM (inactive) | – | – | – | – | – | –
C[n+]1[se]c2ccccc2c1Cl | – | – | – | 28.1 µM (inactive) | 20 µM (inactive) | > 51.1 µM (inactive) | 25.1 µM (inactive) | 25.7 µM (inactive) | 27.8 µM (inactive)
C=CC1(c2ccccc2Cl)N/C(=C/OCC)CO1 (stereo not drawn) | – | > 100 µM (inactive) | – | > 100 µM (inactive) | > 100 µM (inactive) | > 100 µM (inactive) | > 100 µM (inactive) | 33.5 µM (inactive) | > 100 µM (inactive)
O=S1(=O)CC#CC[C@@H](CO)[C@@H](CO)CC#CC1 | – | 38.7 µM (inactive) | – | 71.3 µM (inactive) | – | > 100 µM (inactive) | – | > 100 µM (inactive) | > 100 µM (inactive)
O=C(O)C(O)Cc1ccccn1 (stereo not drawn) | – | > 100 µM (inactive) | > 100 µM (inactive) | – | – | – | – | – | –
Cc1cc(O)c2c(c1O)C(=O)C13C(=C(O)C4C(O)C1C1C(O)C3C(O)=C3C(=O)c5c(O)cc(C)c(O)c5C(=O)C341)C2=O (stereo not drawn) | – | – | – | – | 0.0962 µM (active) | 4.28 µM (inactive) | – | 0.0455 µM (active) | 0.0803 µM (active)
O=C(O)C(F)(F)C(F)(F)C(F)(F)C(F)(F)C(F)(F)C(F)(F)C(F)(F)C(F)(F)F | 40.4 µM (inactive) | – | 29.9 µM (inactive) | – | – | – | – | – | –
O=C(O)c1ccc(C(=O)O)c2c(C(=O)O)ccc(C(=O)O)c12 | > 100 µM (inactive) | > 100 µM (inactive) | > 100 µM (inactive) | – | – | – | – | – | –
CC=C/C=C/[C@@H]1O[C@](O)([C@H](CC)C(=O)NC/C=C/C=C(\C)[C@@H](OC)[C@@H](C)[C@@H]2O[C@H](/C=C/C=C/C=C(\C)C(=O)c3c(O)cc[nH]c3=O)[C@H](O)[C@@H]2O)[C@H](O)[C@H](O)C1(C)C | – | > 100 µM (inactive) | 43.4 µM (inactive) | – | – | – | – | – | –
CSCC[C@H](NC(=O)C(CC(C)C)NC(=O)[C@H](Cc1c[nH]cn1)NC(=O)CNC(=O)[C@@H](NC(=O)[C@@H](C)NC(=O)[C@H](Cc1c[nH]c2ccccc12)NC(=O)[C@H](CCC(N)=O)NC(=O)[C@@H](N)CC(N)=O)C(C)(C)SC)C(N)=O (stereo partly drawn) (H-NQW[dA][Pen](Me)GH[ξL]M-NH2) | – | – | – | – | > 100 µM (inactive) | > 100 µM (inactive) | – | > 100 µM (inactive) | > 100 µM (inactive)
